Assay results from patent publication US20250059201A1, “CAMPTOTHECIN COMPOUND AND CONJUGATE THEREOF” (priority 2021, published 2025).
“And” between values parts separate entries of the source, which are not always exact repeats. Identical values can stand only once.

Key:
[1] = test system: NCI-N87 human gastric cancer cells; assay: Comparative study of the activity of camptothecins (CCK-8 cell killing); type: cell-based; conditions: Homo sapiens, NCI-N87, 96 h, read-out: Maximum Killing (%), NCI-N87, killing days 4 days
Experimental: (§1) KB oral epithelial cancer cells (purchased from: ATCC) were cultured in DMEM medium supplemented with 10% FBS; NCI-N87 human gastric cancer cells (purchased from: ATCC) were cultured in RPMI1640 medium supplemented with 10% FBS; HT29 human colon cancer cells (purchased from: ATCC) were cultured in RPMI1640 medium supplemented with 10% FBS; and BxPC-3 human pancreatic adenocarcinoma cells (purchased from: ATCC) were cultured in RPMI1640 medium supplemented with 10% FBS.
(§2) Using corresponding media described above and in cell plates, the density of KB cells was adjusted to 2×10^4/mL; the density of NCI-N87 cells was adjusted to 5×10^4/mL; the density of HT29 cells was adjusted to 5×10^4/mL, and the cells were plated onto 96-well transparent flat bottom plates, at 100 µL/well, and cultured overnight; and the density of BxPC-3 cells was adjusted to 5×10^4/mL.
(§3) Samples to be detected were diluted to 20 μM with corresponding media, then 5-fold gradient dilution was performed, and 9 concentrations were obtained. A well having cells but with no any sample added was set as the well showing maximum cell growth; and a well having no cells was set as the well of medium background. The diluted samples were added into the cell plates, at 100 μL/well, which were then incubated in a C02 incubator for 96 hours. After the incubation, CCK-8 (purchased from: DOJINDO LABORATORIES) prepared beforehand was added into the plates, at 20 μL/well, and after further 3 hours incubation in the C02 incubator, […] were read on a microplate reader.
(§4) Data obtained was fitted to a four-parameter curve using software Prism7, and equation for calculating maximum killing is: maximum killing (%)=1−(OD450 value of the well showing maximum killing—OD450 value of the well of medium background)/(OD450 value of the well showing maximum cell growth—OD450 value of the cell of medium background)[…].

[2] = test system: BxPC-3 human pancreatic adenocarcinoma cells; assay: as above; type: cell-based
Experimental: as §1, §2, §3, §4

With CC[C@@]1(O)C(=O)OCc2c1cc1n(c2=O)Cc2c-1nc1ccc(N)c3c1c2C(F)(F)CC3 [Compound 3] the Emax [1] was 92.1%, the EC50 ([2]; BxPC-3, killing days 4 days) was 3.23 nM and 5.82 nM and the Emax ([2]; Homo sapiens, BXPC-3, 96 h, read-out: Maximum Killing (%), BxPC-3, killing days 4 days) was 98%.
